Measured values published in patent US9572760B2, “Uses of compounds and mixtures from Antrodia cinnamomea mycelia” (Simpson Biotech Co., Ltd., priority 2013, dated 2017).

Test system: Mouse primary HSC
Experiment: Profibrogenic gene expression in primary hepatic stellate cells (qRT-PCR)
Format: cell-based
Conditions: for Collagen-1 expression / TGF-β expression / TIMP-1 expression / αSMA expression: two concentrations, 72 hrs
Description: The AML12 (mouse hepatocyte) cells were obtained from the BCRC (Bioresource Collection and Research Center) and cultured in Dulbecco's modified Eagle media (DMEM, Gibco by Invitrogen) with 1% antibiotic antimycotic (Gibco by Invitrogen) and 15% fetal bovine serum (Gibco by Invitrogen). The human Hepatic Stellate Cell, HSC cell line was obtained from the ScienCell Research Laboratory (USA) and cultured in complete medium, Stellate Cell Medium (ScienCell Research Laboratory) with 2% fetal bovine serum (ScienCell Research Laboratory), 1% stellate cell growth supplement (ScienCell Research Laboratory) and 1% penicillin/streptomycin solution (ScienCell Research Laboratory). It is well known that TGF-β1 can activation of HSC, which was used as a positive control, the HSC cells were seeded in plate for 24 h and then the cells were replaced with medium containing 10 ng TGF-β1 (PeproTech, USA). For primary hepatic stellate cell isolation, C57BL/6 mice were anesthetized by intraperitoneal injection of ketamine and xylazine. […] Mouse livers were perfused in situ with 0.5 mM EGTA containing calcium-free salt solution (8 ml/min, 37° C. for 5 minutes), followed by perfusion with 2-step 0.05% collagenase D and pronase containing buffer (Roche Molecular Biochemicals, Indianapolis, Ind.) for 5 and 10 minutes, respectively. The harvested liver was minced gently on a Petri dish and additional incubation with protease containing buffer at 37° C. for 25 minutes. Then, the liver was filtered with 70 μm cell strainer. Cells were centrifuged and collected followed by 8.2% Nycodenz (Accurate Chemical and Scientific Corp.). The cell lines were cultured at 37° C. in a humidified atmosphere containing 5% CO2.
Exponentially growing cells were harvested and seeded in a 6-well microtiter plate. Each well of cells were collected to eppendrof in 1 mL of TRIzol buffer (Invitrogen, Carlsbad, Calif., USA), and then mixed with 0.5 mL chloroform/isoamyl alcohol (24:1), eppendrofs were centrifuged at 12,000×g for 10 min at 4° C. The supernatant was transferred to a fresh tube, and isopropanol was added, mix well and stored at −80° C. overnight. The reaction mixture was centrifuged at 12,000×g for 30 min at 4° C. to produce a rude RNA pallet, the pellet was washed with 70% ethanol and air-dried. The concentrations of total RNA were measured by absorbance at 260 nm using a NanoDrop ND-1000 (NanoDrop, USA).
Reverse transcription reaction was performed using a commercially available set of High Capacity RNA-to-cDNA Kit (Applied Biosystems, USA). cDNA was prepared from 2 μg of total RNA per 20 μl reaction, according to the manufacturer's instructions—37° C. for 60 minutes, 95° C. for 5 minutes, and hold at 4° C. The resulting cDNA was to a final concentration of 100 ng/μl and constituted a matrix in further experiments.
Amplification and detection the gene expression by real-time PCR were performed using StepOne plus Real-time PCR System (Applied Biosystems, USA). Samples were assayed in a 10 μl reaction mixture containing 2 μl of template DNA, 5 μl of 2× TaqMan PCR Master Mix (Applied Biosystems, Life Technologies, Foster City, Calif., USA), 0.5 μl of 20× assay mix containing probe, forward and reverse primer (Applied Biosystems, Life Technologies, Foster City, Calif., USA), whereby qPCR targets with the following information were used: (a) α-SMA, Assay ID Rn01759928_g1, (b) TIMP-1, Assay ID Rn00587558_m1, (c) TGF-β1, Assay ID Rn00572010_m1, (d) Collagen I, Assay ID Rn 01463838_m1, (e) GAPDH, Assay ID Rn1462662_g1. To control variation in mRNA concentration, all results were normalized to the housekeeping gene, GAPDH. Relative quantitation was performed using the comparative ΔΔCt method according to the manufacturer's instructions. The cycling conditions used were as follows: 50° C. for 2 min, 95° C. for 10 min followed by 40 cycles of 95° C. for 15 s and 60° C. for 1 min each. […]

| Compound | anti-fibrosis effect on primary HSC (summary) | Collagen-1 expression | TGF-β expression | TIMP-1 expression | αSMA expression |
| --- | --- | --- | --- | --- | --- |
| CC(C)=CCOc1ccc(C2=C(CC(C)C)C(=O)NC2=O)cc1 [Compound B, 3-isobutyl-4-[4-(3-methyl-2-butenyloxy)phenyl]-1H-pyrrol-2,5-dione] | anti-fibrosis effect | dose-dependent effect | dose-dependent effect | dose-dependent effect | dose-dependent effect |
| CC(C)=CCOc1ccc(C2=C(CC(C)C)C(=O)N(O)C2=O)cc1 [Compound C, 3-isobutyl-4-[4-(3-methyl-2-butenyloxy)phenyl]-1H-pyrrol-1-ol-2,5-dione] | anti-fibrosis effect | dose-dependent effect | dose-dependent effect | dose-dependent effect | dose-dependent effect |
